# From patent publication US4389412A, “Substituted cyclopropanecarboxylic acid esters and pesticidal compositions containing the same as active ingredient” (priority 1979, dated 1983)
# Where two headings read alike, the source gives them in different places.
# Tests used:
# [1] = tested on: green rice leafhoppers (Nephotettix cincticeps Uhler); assay: Mortality test with green rice leafhoppers by topical application method; conditions: for mortality at 0.01 µg/female / mortality at 0.1 µg/female / mortality at 1 µg/female / LD50 / mortality at 10 ng: Nephotettix cincticeps, in Oryza sativa, 24 h; for LD50: read-out: LD50 (median lethal dose), topical, green rice leafhoppers; for mortality at 10 ng: read-out: Pesticidal effect, green rice leafhopper
# Protocol: Mortality test with green rice leafhoppers (Nephotettix cincticeps Uhler) by topical application method
# Then, the insects were kept at 25° C. with access to rice plant seedlings. The insects were used in groups of 15 individuals each.
# [2] = tested on: tobacco cutworms (Prodenia litura Fabricius); assay: Mortality test with tobacco cutworms by topical application method; type: in vivo
# Protocol: Mortality test with tobacco cutworms (Prodenia litura Fabricius) by topical application method
# Using a microsyringe, 0.5 μl of the above solution was dripped onto the thoracic adbominal region of each of 3-instar tobacco cutworm (Prodenia litura Fabricius) larvae. […] The test larvae were used in groups of 20 individuals each.
# [3] = tested on: houseflies (Musca domestica); assay: Mortality test with houseflies by topical application method; conditions: 24 h; for mortality at 0.001 mg: read-out: Pesticidal effect, housefly
# Protocol: Mortality test with houseflies (Musca domestica) by topical application method
# Each of the compounds according to this invention and the control compounds (Table 2) was accurately weighted and a 0.1% solution of each sample in acetone was prepared. Female adult houseflies (Musca domestica) resistant to organophosphorus pesticides, were anesthetized with ether and 0.5 μl or 1.0 μl of the above solution was micropipetted onto the prothoracic dorsal region of each insect. The insects were then put in a high-walled dish together with feed and the dish was covered with a wire-mesh cover and kept at a temperature of 25° C. The test insects were used in groups of 30 individuals each. After 24 hours the insects were examined for deaths and the percent mortality was calculated.
# carp and water flea = assay: Fish toxicity ranking according to Japanese regulations; parameters: species or system Cyprinus carpio L; Daphnia pulex; conditions: from TLm for carp and water flea
# Protocol: The above ranking with symbols A, B and C were determined according to Japanese regulations relative to application of agricultural chemicals, and these symbols are defined as follows: […]
# A: TLm (48 hrs.) value >10 ppm for carp and TLm (3 hrs.) value >0.5 ppm for water flea, wherein toxicity to fishes is not observed by usual application.
# B: TLm (48 hrs.) value 10-0.5 ppm for carp; or TLm (48 hrs.) value >10 ppm for carp and TLm (3 hrs.) value <0.5 ppm for water flea, wherein appreciable toxicity to fishes is not observed by usual application but may be observed when applied to wide area at one time.
# C: TLm (48 hrs.) value <0.5 ppm for carp, wherein toxicity to fishes is so strongly observed by usual application that both the application method and application area are strictly restricted.
# [4] = Fish toxicity test with carp; type: in vivo, Cyprinus carpio L; conditions: carp, water, 48 hrs., 21±1° C.; read-out: TLm, Carp (48 hrs.)
# Protocol: Fish toxicity test with carp (Cyprinus carpio L)
# An acetone solution of one of the test compounds as mentioned in Table 10 and Tween-20 (the same surfactant as mentioned hereinbefore) was prepared. To 50 liters of water (30 cm deep) in a glass tank was added the above acetone solution. The mixture was stirred thoroughly to prepare an aqueous solution containing the test compound in a predetermined concentration. This was used as a test water. Five carps (Cyprinus carpio L) with a body weight of about 6 g and a body length of about 6 cm were released into each test water which was maintained at 21±1° C. After 48 hours, the test fish was examined for death. The TLm (median tolerance limit, ppm) was determined. The test water was moderately aerated.
# [5] = tested on: rice stem borers (Chilo suppressalis Walker); assay: Mortality test with rice stem borers by topical application method; type: in vivo; conditions: for mortality at 0.001 mg: read-out: Pesticidal effect, rice stem borer
# Protocol: Mortality test with rice stem borers (Chilo suppressalis Walker) by topical application method
# Using a microsyringe, 0.5 μl of the above solution was applied to the thoracic abdominal region of each final-instar larva of rice stem borer (Chilo suppressalis Walker). […] The test larvae were used in groups of 20 individuals each.
# [6] = tested on: tobacco cutworm (Prodenia litura); assay: Utility Example-5: spray on soy bean leaves, tobacco cutworm larvae; type: in vivo; conditions: 48 h, 2 days
# Protocol: An acetone solution of one of the test compounds as mentioned in Table 13 and Tween-20 (the same surfactant as mentioned hereinbefore) was prepared. This acetone solution was diluted with water to prepare a solution containing the test compound in a predetermined concentration. Leaves of soy bean in pots were sprayed with the above diluted solution at the rate of 20 ml/pot and, after one day, ten 3-instar larvae of tobacco cutworm (Prodenia litura) were released on the leaves. The pots were kept in a constant-temperature chamber at 25° C.
# [7] = Fish toxicity safety factor (TLm divided by maximum concentration in cover water); parameters: species or system carp; conditions: in vivo, TLm / maximum concentration in cover water at LC50 application (100 l per 10 ares, 5 cm depth)
# Protocol: To further confirm the low toxicity to fish and high pesticidal activity of Compounds (1) and (2) according to this invention as evidenced by the fish toxicity tests with carps and the above tests, fish toxicity safety factors were calculated from the fish toxicity and pesticidal test data. These fish toxicity safety factors are indicators of safety to fish inhabiting a paddy field to which Compounds (1) and (2) may be actually applied for pest control purposes.
# It is first assumed that such a pesticidal solution would normally be applied at the rate of 100 l per 10 ares of paddy field. It is also assumed that a solution (100 l) corresponding to the LC50 of the compounds would be applied to 10 ares of a paddy field carrying a cover water with a depth of 5 cm above ground surface and that all the solution would then find its way into the cover water. The expected maximum concentration of the compound in the cover water is then calculated. The fish toxicity safety factor of a pesticidal compound is defined as the value obtained by dividing the TLm (ppm) of the particular compound by the maximum concentration of the compound in cover water. The meaning of the value of the fish toxicity safety factor being one (1) is that the maximum concentration of the particular compound in cover water corresponds to the TLm of said compound. It is understood that when the pesticidal compound having a fish toxicity safety factor value of less than one (1) is applied to a paddy field, it has a risk of destroying the fish inhabiting there, and that the higher the safety factor value, the higher is the safety of the compound to fish.
# This fish toxicity safety factor will now be explained in further detailed by taking the trans-isomer of Compound (2) of this invention as an example.
# On the other hand, the toxicity to fish of this compound is TLm >10 ppm. Therefore, by dividing the TLm (i.e. >10 ppm) by the above cover water maximum concentration (i.e. 0.36 ppm), we obtain a fish toxicity safety factor of >28. Thus, the concentration of the trans-isomerof Compound (2) which kills 50% of pests corresponds to less than 1/28 of the concentration of the same isomer which kills 50% of fish. In other words, this means that the trans-isomer of Compound (2) is extremely safe to fish.
# [8] = tested on: brown planthoppers (Nilaparvata lugens Stal); assay: Utility Example-1: LC50 on adult brown planthoppers on dipped rice plants; type: in vivo; conditions: Nilaparvata lugens, 24 h, 25° C., read-out: Pesticidal activity LC50
# Protocol: A 1% emulsifiable concentrate of each test compound as prepared by the procedure described in Formulation Example 2 was diluted with water to prepare a test solution of predetermined concentration.
# Rice plants, 4 weeks after sowing (cultivated in a pot 6 cm in diameter, 7 seedlings) were dipped in the above solution and after allowing them to dry in the air, the pot was covered with a wire-mesh cage. Then, 30 adult brown planthoppers (Nilaparvata lugens Stal) were released into the cage and the pot was kept in a constant-temperature chamber at 25° C.
# [9] = Fish toxicity test with guppies; type: in vivo, Lebistes reticulatus; conditions: guppy, water, guppies, 20° C., read-out: TLm (48 hrs.)
# Protocol: (§1) Fish toxicity test with guppies (Lebistes reticulatus)
# (§2) To 5 liters of water were added 250 mg of Sorpol SM-200 (trademark, Toho Chemical Co., Ltd.) as a surfactant and 2.5 ml of an acetone solution containing one of the test compounds in a predetermined concentration. The mixture was stirred thoroughly to prepare a test water. Ten female guppies (Lebistes reticulatus) of from 3 to 4 months of age were released into the test water which was maintained at 20° C. and the TLm (median tolerance limit, ppm) was determined.
# [10] = tested on: guppies (Lebistes reticulatus); assay: Fish toxicity test with guppies; type: in vivo; conditions: Table 1; 48 hrs.
# Protocol: as §1, §2
# [11] = 0.1 μg/Larva, 3-instar larvae, 24 hours, read-out: % Mortality
# [12] = 24 h, read-out: Pesticidal effect, tobacco cutworm
# [13] = 1.0 μg/Larva, final-instar larva, 24 hours, read-out: % Mortality
# [14] = 10 μg/Larva, final-instar larva, 24 hours, read-out: % Mortality
structure (smiles),measurement,setting,value
C#CC(OC(=O)C(c1ccc(Cl)cc1)C(C)C)c1cccc(Oc2ccc(Cl)cc2)c1 (stereo not drawn) [Compound (K)],mortality at 0.01 µg/female,[1],33%
same,mortality at 0.1 µg/female,[1],100%
same,mortality at 1 µg/female,[1],100%
same,mortality at 0.0001 mg,[2]; [11],0%
CC1(C)C(C=C(Cl)Cl)C1C(=O)OC(C#N)c1cccc(Oc2cc(Cl)cc(Cl)c2)c1 (stereo not drawn),mortality at 0.5 µg/female,[3],0%
same,mortality at 1 µg/female,[3],27%
"CCC(C)c1ccccc1OC(=O)NC (stereo not drawn) [Bassa, o-sec-butylphenyl methylcarbamate]",LD50,[1],93.8 mg/kg
CC1(C)C(C=C(Cl)Cl)C1C(=O)OCc1cccc(Oc2ccc(Cl)c(Cl)c2)c1 (stereo not drawn),mortality at 0.5 µg/female,[3],0%
same,mortality at 1 µg/female,[3],20%
CC1(C)C(C=C(Cl)Cl)C1C(=O)OC(C#N)c1cccc(Oc2ccc(Br)cc2)c1 (stereo not drawn) [Compound (H)],mortality at 0.5 µg/female,[3],100%
same,mortality at 1 µg/female,[3],100%
same,mortality at 0.001 mg,[3],100%
same,Ranking,carp and water flea,"C (TLm (48 hrs.) value <0.5 ppm for carp, wherein toxicity to fishes is so strongly observed by usual application that both the application method and application area are strictly restricted.)"
same,LC50 at 48 h,[4],0.063 µg/mL
same,mortality at 1 µg/larva,[5]; 24 h,90%
same,mortality at 10 µg/larva,[5]; 24 h,100%
same,mortality at 0.001 mg,[5]; 24 h,90%
same,mortality at 6.5 ppm,[6],40%
same,mortality at 13 ppm,[6],100%
same,mortality at 0.01 µg/female,[1],100%
same,mortality at 0.1 µg/female,[1],100%
same,mortality at 1 µg/female,[1],100%
same,mortality at 10 ng,[1],100%
same,mortality at 0.0001 mg,[2]; 24 h,60%
same,mortality at 0.0001 mg,[2]; [12],60%
Cc1ccc(Oc2cccc(COC(=O)C3C(C=C(Cl)Cl)C3(C)C)c2)cc1 (stereo not drawn),mortality at 0.5 µg/female,[3],80%
same,mortality at 1 µg/female,[3],100%
CC1(C)C(C=C(Cl)Cl)C1C(=O)OCc1cccc(Oc2ccccc2Cl)c1 (stereo not drawn),mortality at 0.5 µg/female,[3],30%
same,mortality at 1 µg/female,[3],60%
C#CC(OC(=O)C1C(C=C(Cl)Cl)C1(C)C)c1cccc(Oc2ccc(Br)cc2)c1 (stereo not drawn),mortality at 6.5 ppm,[6],0%
same,mortality at 13 ppm,[6],90%
Cc1ccc(Oc2cccc(C(C#N)OC(=O)C3C(C=C(Cl)Cl)C3(C)C)c2)cc1C (stereo not drawn),mortality at 0.5 µg/female,[3],40%
same,mortality at 1 µg/female,[3],80%
"CC(C)=CC1C(C(=O)OCc2cccc(Oc3ccccc3)c2)C1(C)C (stereo not drawn) [Compound (A), Phenothrin]",mortality at 0.5 µg/female,[3],97%
same,mortality at 1 µg/female,[3],100%
same,mortality at 0.001 mg,[3],100%
same,mortality at 1 µg/larva,[5]; 24 h,45%
same,mortality at 10 µg/larva,[5]; 24 h,100%
same,mortality at 0.001 mg,[5]; 24 h,45%
same,mortality at 0.01 µg/female,[1],80%
same,mortality at 0.1 µg/female,[1],100%
same,mortality at 1 µg/female,[1],100%
same,LD50,[1],1.22 mg/kg
same,mortality at 10 ng,[1],80%
same,mortality at 0.0001 mg,[2]; 24 h,35%
same,mortality at 0.0001 mg,[2]; [12],35%
Cc1cccc(Oc2cccc(COC(=O)C3C(C=C(Cl)Cl)C3(C)C)c2)c1 (stereo not drawn),mortality at 0.5 µg/female,[3],50%
same,mortality at 1 µg/female,[3],80%
CC(C)C(C(=O)OCc1cccc(Oc2ccc(Cl)cc2)c1)c1ccc(Cl)cc1 (stereo not drawn) [Compound (J)],mortality at 1 µg/larva,[5]; [13],15%
same,mortality at 10 µg/larva,[5]; [14],90%
same,mortality at 0.0001 mg,[2]; [11],0%
CC1(C)C(C=C(Cl)Cl)C1C(=O)OCc1cccc(Oc2ccc(Br)cc2)c1 (stereo not drawn),mortality at 6.5 ppm,[6],10%
same,mortality at 13 ppm,[6],100%
"CCOC(=O)CC(SP(=S)(OC)OC)C(=O)OCC (stereo not drawn) [Malathion, malathion]",LD50,[1],565 mg/kg
"COP(=S)(OC)Oc1ccc([N+](=O)[O-])c(C)c1 [Fenitrothion, fenitrothion]",LD50,[1],4050 mg/kg
CC1(C)C(C=C(Cl)Cl)C1C(=O)OCc1cccc(Oc2cccc(Cl)c2)c1 (stereo not drawn),mortality at 0.5 µg/female,[3],60%
same,mortality at 1 µg/female,[3],93%
"CCOP(=S)(OCC)Oc1cc(C)nc(C(C)C)n1 [Diazinon, diazinon]",LD50,[1],72.2 mg/kg
CC(C)C(C(=O)OC(C#N)c1cccc(Oc2ccc(Cl)cc2)c1)c1ccc(Cl)cc1 (stereo not drawn) [Compound (L)],Ranking,carp and water flea,"C (TLm (48 hrs.) value <0.5 ppm for carp, wherein toxicity to fishes is so strongly observed by usual application that both the application method and application area are strictly restricted.)"
same,LC50 at 48 h,[4],0.032 µg/mL
same,mortality at 1 µg/larva,[5]; [13],85%
same,mortality at 10 µg/larva,[5]; [14],100%
same,selectivity ratio,[7],0.0071
same,LC50,[8],2260 µg/mL
same,mortality at 0.0001 mg,[2]; [11],35%
CC1(C)C(C=C(Cl)Cl)C1C(=O)OCc1cccc(Oc2ccc(Cl)cc2)c1 (stereo not drawn) [Compound (1) cis-/trans- = 30:70],LD50 (median lethal dose),"[1]; green rice leafhoppers, 1440 min",0.85 µg/g
C#CC(OC(=O)C1C(C=C(Cl)Cl)C1(C)C)c1cccc(Oc2ccccc2)c1 (stereo not drawn) [Compound (F)],mortality at 0.5 µg/female,[3],100%
same,mortality at 1 µg/female,[3],100%
same,mortality at 0.001 mg,[3],100%
same,mortality at 0.01 µg/female,[1],100%
same,mortality at 0.1 µg/female,[1],100%
same,mortality at 1 µg/female,[1],100%
same,mortality at 10 ng,[1],100%
same,LC50 at 48 h,[9],< 0.5 µg/mL
same,"Toxicity to fish TLm, guppy",[10],< 0.5 ppm
